{
  "source": "paper PMC9853869",
  "about": "“The Myxobacterial Antibiotic Myxovalargin: Biosynthesis, Structural Revision, Total Synthesis, and Molecular Characterization of Ribosomal Inhibition” (Journal of the American Chemical Society, 2023)",
  "key": {"[1]": {"system": "M. tuberculosis MXV-SRM69 (rrl: t2847c, rrl: t2849g, Rv2935/ppsE: G146*)", "details": "MXV-SRM69 (rrl: t2847c, rrl: t2849g, Rv2935/ppsE: G146*, 4 h)"}, "[2]": {"system": "M. tuberculosis", "format": "cell-based, Mycobacterium tuberculosis"}},
  "note": "*1 amine or outer side, *2 acyl side, *3 side chain or, on linkers, in order; H or OH if unused. Where a SMILES comes first, the peptide text is derived from it. [ ]: non-standard residue; d: D form. The star is where a group is joined. X1 = O=C(C[C@H](N[*:1])c1ccc(O)cc1)[*:2]; dVal(3-OH) = CC(C)(O)[C@@H](N)C(=O)O; ΔIle(E) = CC/C(C)=C(/N)C(=O)O; Isovaleryl = CC(C)CC(=O)*; Agmatine = N=C(N)NCCCCN*; NMeA = CN[C@@H](C)C(=O)O; ΔVal = CC(C)=C(N)C(=O)O",
  "data": [
    {"smiles": "CC/C(C)=C(/NC(=O)[C@H](NC(=O)[C@@H](NC(=O)[C@@H](CCCNC(=N)N)NC(=O)C(NC(=O)[C@H](NC(=O)C[C@H](NC(=O)[C@H](NC(=O)[C@H](NC(=O)[C@H](C)N(C)C(=O)[C@H](C)NC(=O)C(NC(=O)CC(C)C)=C(C)C)C(C)C)C(C)C)c1ccc(O)cc1)C(C)C)=C(C)C)C(C)C)C(C)C)C(=O)N[C@H](C)C(=O)N[C@@H](C(=O)NCCCCNC(=N)N)C(C)(C)O", "note": "[MyxA, Myxovalargin A] (Isovaleryl-[ΔVal]A[NMeA][dV][dV][X1][dV][ΔVal][dR]V[dV][ΔIle(E)][dA][dVal(3-OH)]-Agmatine)", "values": [
      {"measurement": "MIC", "setting": "[1]", "result": ">210", "unit": "µg/mL"},
      {"measurement": "MIC shift of resistant mutant strains", "setting": "[2]", "result": "> 40", "unit": "fold"},
      {"measurement": "frequency of spontaneous resistance mutants", "setting": "[2]", "result": "~6 × 10^–7"}
    ]}
  ]
}
